Our source for the inhibition and fold change (FC) values is ChEMBL document CHEMBL5653631, “A Potent and Selective ULK1 Inhibitor Suppresses Autophagy and Sensitizes Cancer Cells to Nutrient Stress” (iScience, 2018).

The inhibition is the percentage by which the read-out fell short of the control.

Each structure is given as a SMILES string.

The target in assay [1] is Vascular endothelial growth factor receptor 2 (Homo sapiens) (UniProt P35968). The assay can be described thus: Inhibition of human recombinant KDR at 40 nM in presence of ATP by radiometric assay relative to control.
Vascular endothelial growth factor receptor 2 (Homo sapiens), sequence (P35968 whole entry): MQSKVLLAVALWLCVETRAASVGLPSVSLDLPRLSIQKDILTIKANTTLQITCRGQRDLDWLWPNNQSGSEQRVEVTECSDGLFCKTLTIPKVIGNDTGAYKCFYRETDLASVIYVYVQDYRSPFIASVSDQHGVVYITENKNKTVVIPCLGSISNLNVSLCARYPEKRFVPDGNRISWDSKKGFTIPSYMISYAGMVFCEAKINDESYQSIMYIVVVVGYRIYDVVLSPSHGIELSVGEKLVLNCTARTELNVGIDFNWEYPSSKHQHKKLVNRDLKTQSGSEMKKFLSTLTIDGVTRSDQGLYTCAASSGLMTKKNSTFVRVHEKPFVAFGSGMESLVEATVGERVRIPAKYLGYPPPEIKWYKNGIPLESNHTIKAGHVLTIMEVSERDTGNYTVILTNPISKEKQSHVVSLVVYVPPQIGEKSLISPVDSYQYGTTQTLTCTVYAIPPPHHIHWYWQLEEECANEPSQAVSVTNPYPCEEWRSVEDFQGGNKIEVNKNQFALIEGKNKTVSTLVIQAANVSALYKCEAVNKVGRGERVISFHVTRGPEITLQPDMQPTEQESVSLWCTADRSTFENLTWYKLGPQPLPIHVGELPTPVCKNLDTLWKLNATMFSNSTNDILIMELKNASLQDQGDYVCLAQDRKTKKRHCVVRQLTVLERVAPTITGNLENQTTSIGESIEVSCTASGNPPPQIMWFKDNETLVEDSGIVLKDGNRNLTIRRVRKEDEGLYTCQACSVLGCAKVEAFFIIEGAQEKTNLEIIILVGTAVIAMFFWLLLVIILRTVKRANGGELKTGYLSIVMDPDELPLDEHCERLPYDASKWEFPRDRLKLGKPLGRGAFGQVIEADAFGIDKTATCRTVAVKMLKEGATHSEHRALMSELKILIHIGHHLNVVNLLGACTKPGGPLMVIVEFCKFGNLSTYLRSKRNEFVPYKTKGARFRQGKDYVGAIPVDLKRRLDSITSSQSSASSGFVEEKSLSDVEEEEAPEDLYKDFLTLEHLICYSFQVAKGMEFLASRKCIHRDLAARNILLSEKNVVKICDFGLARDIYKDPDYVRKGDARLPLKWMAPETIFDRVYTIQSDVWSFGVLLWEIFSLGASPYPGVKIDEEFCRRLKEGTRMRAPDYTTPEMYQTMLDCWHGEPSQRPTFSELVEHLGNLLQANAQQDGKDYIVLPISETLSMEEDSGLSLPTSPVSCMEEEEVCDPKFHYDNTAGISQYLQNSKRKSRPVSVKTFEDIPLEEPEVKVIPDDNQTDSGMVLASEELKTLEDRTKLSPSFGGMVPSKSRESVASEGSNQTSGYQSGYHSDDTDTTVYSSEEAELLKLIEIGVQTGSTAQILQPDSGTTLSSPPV
The target in assay [2] is T1, Serine/threonine-protein kinase 3 (Homo sapiens) (UniProt Q13188).
T1 sequence (whole entry): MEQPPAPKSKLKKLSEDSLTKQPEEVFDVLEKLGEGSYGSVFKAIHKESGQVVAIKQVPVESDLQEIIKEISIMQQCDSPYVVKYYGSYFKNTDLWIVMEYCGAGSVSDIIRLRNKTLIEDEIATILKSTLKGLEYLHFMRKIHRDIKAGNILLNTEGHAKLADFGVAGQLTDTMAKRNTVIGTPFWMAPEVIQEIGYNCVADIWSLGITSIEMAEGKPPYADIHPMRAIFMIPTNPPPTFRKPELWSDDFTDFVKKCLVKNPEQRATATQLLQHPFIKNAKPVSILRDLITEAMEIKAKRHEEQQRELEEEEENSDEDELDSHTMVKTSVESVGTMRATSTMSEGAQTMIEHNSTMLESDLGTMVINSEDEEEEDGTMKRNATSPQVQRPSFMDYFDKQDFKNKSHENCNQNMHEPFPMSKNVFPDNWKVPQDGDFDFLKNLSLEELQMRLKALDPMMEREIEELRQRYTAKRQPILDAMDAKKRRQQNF
The assay can be described thus: Inhibition of human recombinant MST2 at 40 nM in presence of ATP by radiometric assay relative to control.

Assay [3] has as its target T2, Muscle, skeletal receptor tyrosine-protein kinase (Homo sapiens) (UniProt O15146).
T2 sequence (whole entry): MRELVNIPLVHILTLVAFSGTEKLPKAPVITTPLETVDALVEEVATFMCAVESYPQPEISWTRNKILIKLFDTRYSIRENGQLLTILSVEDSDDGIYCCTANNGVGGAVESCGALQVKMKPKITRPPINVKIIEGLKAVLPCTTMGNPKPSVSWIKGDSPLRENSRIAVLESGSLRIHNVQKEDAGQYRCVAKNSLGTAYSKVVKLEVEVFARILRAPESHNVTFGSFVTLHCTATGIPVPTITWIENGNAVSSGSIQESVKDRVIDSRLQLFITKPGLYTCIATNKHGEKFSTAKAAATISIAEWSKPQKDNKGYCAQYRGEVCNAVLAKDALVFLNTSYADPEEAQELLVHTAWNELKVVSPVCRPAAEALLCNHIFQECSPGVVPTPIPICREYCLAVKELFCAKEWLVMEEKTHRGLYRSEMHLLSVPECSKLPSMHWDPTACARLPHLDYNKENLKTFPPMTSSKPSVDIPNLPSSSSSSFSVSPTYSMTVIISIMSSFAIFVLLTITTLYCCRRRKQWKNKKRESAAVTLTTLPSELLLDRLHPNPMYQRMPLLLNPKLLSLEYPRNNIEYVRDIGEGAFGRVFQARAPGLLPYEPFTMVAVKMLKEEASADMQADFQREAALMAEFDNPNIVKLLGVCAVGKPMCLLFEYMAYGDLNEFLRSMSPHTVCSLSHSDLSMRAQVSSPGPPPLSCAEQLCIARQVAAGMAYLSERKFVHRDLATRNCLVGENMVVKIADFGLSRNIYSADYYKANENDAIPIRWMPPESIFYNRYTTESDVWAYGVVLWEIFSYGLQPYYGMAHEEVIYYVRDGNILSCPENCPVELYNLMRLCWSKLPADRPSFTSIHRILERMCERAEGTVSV
Description: Inhibition of human recombinant MUSK at 40 nM in presence of ATP by radiometric assay relative to control.

The target in assay [4] is Ribosomal protein S6 kinase alpha-1 (Homo sapiens) (UniProt Q15418). Description: Inhibition of human recombinant RSK1 at 40 nM in presence of ATP by radiometric assay relative to control.
Ribosomal protein S6 kinase alpha-1 (Homo sapiens), sequence (Q15418 whole entry): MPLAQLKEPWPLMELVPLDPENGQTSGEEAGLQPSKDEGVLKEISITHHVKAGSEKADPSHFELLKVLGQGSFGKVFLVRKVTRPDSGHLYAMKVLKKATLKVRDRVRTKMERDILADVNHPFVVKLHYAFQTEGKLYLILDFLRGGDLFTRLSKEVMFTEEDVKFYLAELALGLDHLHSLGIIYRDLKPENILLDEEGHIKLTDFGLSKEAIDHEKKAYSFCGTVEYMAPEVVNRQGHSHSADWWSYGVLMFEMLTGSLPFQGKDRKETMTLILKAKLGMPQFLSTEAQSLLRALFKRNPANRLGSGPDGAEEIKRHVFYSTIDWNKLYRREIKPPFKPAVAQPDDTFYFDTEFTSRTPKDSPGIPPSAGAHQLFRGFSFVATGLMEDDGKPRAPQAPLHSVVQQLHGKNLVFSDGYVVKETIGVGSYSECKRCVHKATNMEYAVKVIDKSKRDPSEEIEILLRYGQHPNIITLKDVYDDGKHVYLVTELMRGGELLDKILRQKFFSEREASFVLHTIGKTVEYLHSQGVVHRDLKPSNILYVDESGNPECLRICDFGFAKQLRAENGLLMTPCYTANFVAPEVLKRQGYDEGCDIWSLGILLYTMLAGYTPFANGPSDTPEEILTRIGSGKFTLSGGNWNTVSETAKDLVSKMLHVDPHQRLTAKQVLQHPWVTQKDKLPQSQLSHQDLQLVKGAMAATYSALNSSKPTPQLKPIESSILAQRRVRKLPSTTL
Assay [5] deals with T3, Ephrin type-B receptor 4 (Homo sapiens) (UniProt P54760).
T3 sequence (whole entry): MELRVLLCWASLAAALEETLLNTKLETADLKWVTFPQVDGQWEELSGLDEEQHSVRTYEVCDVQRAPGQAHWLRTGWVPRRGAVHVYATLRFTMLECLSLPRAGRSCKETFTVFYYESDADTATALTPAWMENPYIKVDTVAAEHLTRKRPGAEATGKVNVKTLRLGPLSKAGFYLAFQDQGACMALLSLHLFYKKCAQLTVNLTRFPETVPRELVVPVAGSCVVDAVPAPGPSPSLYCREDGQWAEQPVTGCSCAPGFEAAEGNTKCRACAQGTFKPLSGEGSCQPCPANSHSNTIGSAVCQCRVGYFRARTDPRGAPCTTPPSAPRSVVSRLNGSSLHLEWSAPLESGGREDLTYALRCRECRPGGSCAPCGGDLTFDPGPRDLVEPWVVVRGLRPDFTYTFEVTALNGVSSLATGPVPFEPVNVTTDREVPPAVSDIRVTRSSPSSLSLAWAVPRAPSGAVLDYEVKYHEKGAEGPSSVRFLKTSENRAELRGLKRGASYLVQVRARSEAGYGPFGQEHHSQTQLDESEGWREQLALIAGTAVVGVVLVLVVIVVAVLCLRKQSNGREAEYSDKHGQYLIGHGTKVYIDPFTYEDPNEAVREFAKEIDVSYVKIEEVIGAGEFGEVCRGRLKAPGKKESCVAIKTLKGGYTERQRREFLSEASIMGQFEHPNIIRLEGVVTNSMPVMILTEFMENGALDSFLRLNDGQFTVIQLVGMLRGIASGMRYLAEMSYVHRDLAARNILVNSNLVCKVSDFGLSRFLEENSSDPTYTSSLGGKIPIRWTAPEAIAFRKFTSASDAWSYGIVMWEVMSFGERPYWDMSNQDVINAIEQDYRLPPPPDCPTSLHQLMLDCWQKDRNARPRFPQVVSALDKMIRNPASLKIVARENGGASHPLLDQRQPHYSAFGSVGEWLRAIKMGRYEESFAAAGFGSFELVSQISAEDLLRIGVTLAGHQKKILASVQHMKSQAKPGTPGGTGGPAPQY
The assay can be described thus: Inhibition of human recombinant EphB4 at 500 nM related to control ULK1.

As to `O=C(N[C@@H](C1CC1)C(F)(F)F)c1cc(-c2cnn3cc(-c4ccc(F)cc4)cnc23)cs1`, the inhibition in assay [1] amounted to 5%; in assay [2], 0%; in assay [3], 13%; in assay [4], 8%.
For the molecule `CNC(=O)c1ccccc1Oc1nc(Nc2cc(OC)c(OC)c(OC)c2)ncc1Br`, the fold change (FC) in assay [5] was 0.
